How the values were obtained:
[1] = tested on: multidrug-resistant Pseudomonas aeruginosa; test: Growth suppression of multidrug-resistant Pseudomonas aeruginosa clinical isolates (Test Example 7); type: cell-based; details: MEPM 2 μg/ml alone, compound 8 20 μM (15.5 μg/ml) alone, Combination = both, 3 wells
Procedure: The effect of NODA-GA-conjugated doripenem (compound 8) on the susceptibility of a Pseudomonas aeruginosa clinical isolate to a carbapenem antibacterial agent was evaluated by the following method. The Pseudomonas aeruginosa clinical isolate was cultured overnight with shaking in LB medium. The bacterial solution was diluted to 1/1000 with LB medium, used as a test bacterial solution, and then seeded in a 96-well plate. Meropenem (Wako Pure Chemical Industries, Ltd.) was added to this bacterial solution in such a manner that the concentration was 2 μg/ml. The effect of NODA-GA-doripenem alone was also examined. The bacteria were cultured in an incubator at 37° C. for one day, and the growth at that time was measured by turbidity (655 nm).
MEPM in Table 1 is meropenem (2 μg/ml) administered alone; NODA-GA-doripenem is compound 8 (20 μM; 15.5 μg/ml) administered alone; Combination means a combined use of meropenem (2 μg/ml) and compound 8 (20 μM; 15.5 μg/ml).

[2] = tested on: Multidrug-resistant Pseudomonas aeruginosa strain MR4; test: Growth inhibition of Pseudomonas aeruginosa strain MR4 (Test Example 8); type: cell-based; details: after 24 hours, compared with doripenem
Procedure: Multidrug-resistant Pseudomonas aeruginosa strain MR4 was cultured with doripenem or compound 8, and the bacterial load was assessed by turbidity after 24 hours. FIG. 18 depicts the results.

For `C[C@@H](O)[C@H]1C(=O)N2C(C(=O)O)=C(S[C@@H]3CN[C@H](CNS(=O)(=O)NC(=O)CCC(C(=O)O)N4CCN(CC(=O)O)CCN(CC(=O)O)CC4)C3)[C@H](C)[C@H]12` (stereo partly drawn) [compound 8, NODA-GA-conjugated doripenem], the “suppression of bacterial growth” value ([1]; strain 808#1) was “X (x indicates that the number of wells in which suppression of bacterial growth was confirmed was 1 or less)”, the “suppression of bacterial growth” value ([1]; strain 808#2) was “X (x indicates that the number of wells in which suppression of bacterial growth was confirmed was 1 or less)” and the “suppression of bacterial growth” value ([1]; strain MR1) was “◯ (◯ indicates that bacterial growth was suppressed in all 3 wells)”. For the same molecule, the “suppression of bacterial growth” value ([1]; strain MR2) was “◯ (◯ indicates that bacterial growth was suppressed in all 3 wells)”, the “suppression of bacterial growth” value ([1]; strain MR3) was “Δ (Δ indicates that bacterial growth was suppressed in 2 wells out of 3 wells)” and the “suppression of bacterial growth” value ([1]; strain MR4) was “Δ (Δ indicates that bacterial growth was suppressed in 2 wells out of 3 wells)”. For the same molecule, the “suppression of bacterial growth” value ([1]; strain MR5) was “◯ (◯ indicates that bacterial growth was suppressed in all 3 wells)”, the “suppression of bacterial growth” value ([1]; strain MR6) was “Δ (Δ indicates that bacterial growth was suppressed in 2 wells out of 3 wells)” and the “suppression of bacterial growth” value ([1]; strain MR7) was “◯ (◯ indicates that bacterial growth was suppressed in all 3 wells)”. For the same molecule, the “suppression of bacterial growth” value ([1]; strain MR8) was “X (x indicates that the number of wells in which suppression of bacterial growth was confirmed was 1 or less)”, the “suppression of bacterial growth” value ([1]; strain MR9) was “◯ (◯ indicates that bacterial growth was suppressed in all 3 wells)” and the “suppression of bacterial growth” value ([1]; strain MR10) was “Δ (Δ indicates that bacterial growth was suppressed in 2 wells out of 3 wells)”. For the same molecule, the “suppression of bacterial growth” value ([1]; strain MR11) was “X (x indicates that the number of wells in which suppression of bacterial growth was confirmed was 1 or less)”, the “suppression of bacterial growth” value ([1]; strain MR12) was “X (x indicates that the number of wells in which suppression of bacterial growth was confirmed was 1 or less)” and the “suppression of bacterial growth” value ([1]; strain MR13) was “X (x indicates that the number of wells in which suppression of bacterial growth was confirmed was 1 or less)”. The “suppression of bacterial growth” value ([1]; strain MR14) was “Δ (Δ indicates that bacterial growth was suppressed in 2 wells out of 3 wells)”, the “suppression of bacterial growth” value ([1]; strain MR15) was “◯ (◯ indicates that bacterial growth was suppressed in all 3 wells)” and the “suppression of bacterial growth” value ([1]; strain MR16) was “X (x indicates that the number of wells in which suppression of bacterial growth was confirmed was 1 or less)”. For the same molecule, the “suppression of bacterial growth” value ([1]; strain NM1) was “Δ (Δ indicates that bacterial growth was suppressed in 2 wells out of 3 wells)”, the “suppression of bacterial growth” value ([1]; strain NM2) was “Δ (Δ indicates that bacterial growth was suppressed in 2 wells out of 3 wells)” and the “suppression of bacterial growth” value ([1]; strain NM3) was “◯ (◯ indicates that bacterial growth was suppressed in all 3 wells)”. The “suppression of bacterial growth” value ([1]; strain NM4) was “◯ (◯ indicates that bacterial growth was suppressed in all 3 wells)”, the “suppression of bacterial growth” value ([1]; strain NM5) was “X (x indicates that the number of wells in which suppression of bacterial growth was confirmed was 1 or less)” and the “anti-Pseudomonas aeruginosa effect (bacterial load by turbidity)” value [2] was “significantly improved compared to that of doripenem”.

— patent publication US20240245783A1, “METALLO-BETA-LACTAMASE INHIBITOR” (priority 2021, published 2024)
